# Measurements: PubChem BioAssay (NCI)
#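 The concentration for 50% growth inhibition is given as GI50. At the TGI there is no net growth.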
# Legend:
# Assay in all cases: NCI tumour cell line growth inhibition, 384-well format
# RPMI-8226 leukemia = tested on: RPMI-8226 leukemia
# HOP-62 NSCLC = tested on: HOP-62 NSCLC
# A549 NSCLC = tested on: A549 NSCLC
# ACHN renal = tested on: ACHN renal
# A498 renal = tested on: A498 renal
# NCI/ADR-RES ovarian = tested on: NCI/ADR-RES ovarian
# CAKI-1 renal = tested on: CAKI-1 renal
# HCT-15 colon = tested on: HCT-15 colon
# BT-549 breast = tested on: BT-549 breast
# MDA-MB-435 melanoma = tested on: MDA-MB-435 melanoma
# EKVX NSCLC = tested on: EKVX NSCLC
# 786-0 renal = tested on: 786-0 renal
# NCI-H23 lung = tested on: NCI-H23 lung
# SF-539 CNS = tested on: SF-539 CNS
# SF-295 CNS = tested on: SF-295 CNS
# HOP-92 NSCLC = tested on: HOP-92 NSCLC
# SW-620 colon = tested on: SW-620 colon
# OVCAR-3 ovarian = tested on: OVCAR-3 ovarian
# HT29 colon = tested on: HT29 colon
# SK-MEL-5 melanoma = tested on: SK-MEL-5 melanoma
# HCT-116 colon = tested on: HCT-116 colon
# NCI-H522 lung = tested on: NCI-H522 lung
# TK-10 renal = tested on: TK-10 renal
# LOX IMVI melanoma = tested on: LOX IMVI melanoma
# SNB-19 CNS = tested on: SNB-19 CNS
# DU-145 prostate = tested on: DU-145 prostate
# MDA-MB-231 breast = tested on: MDA-MB-231 breast
# NCI-H226 lung = tested on: NCI-H226 lung
# UO-31 renal = tested on: UO-31 renal
# M14 melanoma = tested on: M14 melanoma
# SN12C renal = tested on: SN12C renal
# HCC-2998 colon = tested on: HCC-2998 colon
# K-562 leukemia = tested on: K-562 leukemia
# MCF7 breast = tested on: MCF7 breast
# HS 578T breast = tested on: HS 578T breast
# SF-268 CNS = tested on: SF-268 CNS
# U251 glioblastoma = tested on: U251 glioblastoma
# NCI-H322M lung = tested on: NCI-H322M lung
# T-47D breast = tested on: T-47D breast
# OVCAR-8 ovarian = tested on: OVCAR-8 ovarian
# MDA-MB-468 breast = tested on: MDA-MB-468 breast
# MALME-3M melanoma = tested on: MALME-3M melanoma
# PC-3 prostate = tested on: PC-3 prostate
# OVCAR-5 ovarian = tested on: OVCAR-5 ovarian
# SK-OV-3 ovarian = tested on: SK-OV-3 ovarian
# SNB-75 CNS = tested on: SNB-75 CNS
# UACC-257 melanoma = tested on: UACC-257 melanoma
# UACC-62 melanoma = tested on: UACC-62 melanoma
# SK-MEL-28 melanoma = tested on: SK-MEL-28 melanoma
# OVCAR-4 ovarian = tested on: OVCAR-4 ovarian
# NCI-H460 NSCLC = tested on: NCI-H460 NSCLC
# KM12 colon = tested on: KM12 colon
# CCRF-CEM leukemia = tested on: CCRF-CEM leukemia
# IGROV1 ovarian = tested on: IGROV1 ovarian
smiles,measurement,setting,value
COc1ccc2c(c1)[C@]1(C[C@H]1c1ccc3c(/C=C/c4ccc(CN5C[C@@H](C)O[C@@H](C)C5)cc4)n[nH]c3c1)C(=O)N2,GI50,RPMI-8226 leukemia,0.156 µM
same,TGI,RPMI-8226 leukemia,3.4 µM
same,GI50,HOP-62 NSCLC,1.07 µM
same,TGI,HOP-62 NSCLC,3.32 µM
same,GI50,A549 NSCLC,1.19 µM
same,TGI,A549 NSCLC,32.2 µM
same,GI50,ACHN renal,2.73 µM
same,TGI,ACHN renal,16.8 µM
same,GI50,A498 renal,2.33 µM
same,TGI,A498 renal,6.32 µM
same,GI50,NCI/ADR-RES ovarian,1.82 µM
same,TGI,NCI/ADR-RES ovarian,7.14 µM
same,GI50,CAKI-1 renal,3.6 µM
same,TGI,CAKI-1 renal,> 100 µM
same,GI50,HCT-15 colon,2.67 µM
same,TGI,HCT-15 colon,8.83 µM
same,GI50,BT-549 breast,1.68 µM
same,TGI,BT-549 breast,3.22 µM
same,GI50,MDA-MB-435 melanoma,4.64 µM
same,TGI,MDA-MB-435 melanoma,17.4 µM
same,GI50,EKVX NSCLC,3.76 µM
same,TGI,EKVX NSCLC,46.8 µM
same,GI50,786-0 renal,1.63 µM
same,TGI,786-0 renal,3.37 µM
same,GI50,NCI-H23 lung,1.67 µM
same,TGI,NCI-H23 lung,4.27 µM
same,GI50,SF-539 CNS,1.3 µM
same,TGI,SF-539 CNS,2.64 µM
same,GI50,SF-295 CNS,2.74 µM
same,TGI,SF-295 CNS,15.1 µM
same,GI50,HOP-92 NSCLC,2.19 µM
same,TGI,HOP-92 NSCLC,7.29 µM
same,GI50,SW-620 colon,2.62 µM
same,TGI,SW-620 colon,11.9 µM
same,GI50,OVCAR-3 ovarian,1.33 µM
same,TGI,OVCAR-3 ovarian,2.89 µM
same,GI50,HT29 colon,1.82 µM
same,TGI,HT29 colon,3.56 µM
same,GI50,SK-MEL-5 melanoma,1.5 µM
same,TGI,SK-MEL-5 melanoma,2.85 µM
same,GI50,HCT-116 colon,1.56 µM
same,TGI,HCT-116 colon,6.47 µM
same,GI50,NCI-H522 lung,2.29 µM
same,TGI,NCI-H522 lung,> 100 µM
same,GI50,TK-10 renal,3.66 µM
same,TGI,TK-10 renal,27.9 µM
same,GI50,LOX IMVI melanoma,1.65 µM
same,TGI,LOX IMVI melanoma,3.64 µM
same,GI50,SNB-19 CNS,3.34 µM
same,TGI,SNB-19 CNS,92.7 µM
same,GI50,DU-145 prostate,3.11 µM
same,TGI,DU-145 prostate,12.9 µM
same,GI50,MDA-MB-231 breast,3.05 µM
same,TGI,MDA-MB-231 breast,10.4 µM
same,GI50,NCI-H226 lung,1.25 µM
same,TGI,NCI-H226 lung,14.2 µM
same,GI50,UO-31 renal,4.2 µM
same,TGI,UO-31 renal,68.1 µM
same,GI50,M14 melanoma,2.42 µM
same,TGI,M14 melanoma,11.4 µM
same,GI50,SN12C renal,3.57 µM
same,TGI,SN12C renal,52.9 µM
same,GI50,HCC-2998 colon,2.73 µM
same,TGI,HCC-2998 colon,5.41 µM
same,GI50,K-562 leukemia,0.219 µM
same,TGI,K-562 leukemia,0.896 µM
same,GI50,MCF7 breast,1.64 µM
same,TGI,MCF7 breast,3.31 µM
same,GI50,HS 578T breast,2.23 µM
same,TGI,HS 578T breast,4.38 µM
same,GI50,SF-268 CNS,< 0.01 µM
same,TGI,SF-268 CNS,2.81 µM
same,GI50,U251 glioblastoma,2.34 µM
same,TGI,U251 glioblastoma,6.9 µM
same,GI50,NCI-H322M lung,4.48 µM
same,TGI,NCI-H322M lung,> 100 µM
same,GI50,T-47D breast,2.07 µM
same,TGI,T-47D breast,5.25 µM
same,GI50,OVCAR-8 ovarian,2.3 µM
same,TGI,OVCAR-8 ovarian,9.75 µM
same,GI50,MDA-MB-468 breast,< 0.01 µM
same,TGI,MDA-MB-468 breast,0.07 µM
same,GI50,MALME-3M melanoma,1.26 µM
same,TGI,MALME-3M melanoma,2.64 µM
same,GI50,PC-3 prostate,3.28 µM
same,TGI,PC-3 prostate,11 µM
same,GI50,OVCAR-5 ovarian,4.13 µM
same,TGI,OVCAR-5 ovarian,64.5 µM
same,GI50,SK-OV-3 ovarian,3.29 µM
same,TGI,SK-OV-3 ovarian,33.5 µM
same,GI50,SNB-75 CNS,1.73 µM
same,TGI,SNB-75 CNS,4.27 µM
same,GI50,UACC-257 melanoma,2.64 µM
same,TGI,UACC-257 melanoma,8.98 µM
same,GI50,UACC-62 melanoma,1.81 µM
same,TGI,UACC-62 melanoma,11 µM
same,GI50,SK-MEL-28 melanoma,5.22 µM
same,TGI,SK-MEL-28 melanoma,20.9 µM
same,GI50,OVCAR-4 ovarian,5.15 µM
same,TGI,OVCAR-4 ovarian,28 µM
same,GI50,NCI-H460 NSCLC,< 0.01 µM
same,TGI,NCI-H460 NSCLC,2.02 µM
same,GI50,KM12 colon,0.0171 µM
same,TGI,KM12 colon,1.68 µM
same,GI50,CCRF-CEM leukemia,< 0.01 µM
same,GI50,IGROV1 ovarian,4.81 µM
same,TGI,IGROV1 ovarian,> 100 µM
